From PMC5218480 (PLoS ONE, 2017)

Tested on: MV-4-11 cells
Assay: Gene expression microarray analysis (Affymetrix PrimeView) and GSEA
Type: cell-based, human
Parameters: RFU PODN (11730768_x_at) / Fold change /veh PODN (11730768_x_at) / RFU LINC00158 (11744669_a_at) / Fold change /veh LINC00158 (11744669_a_at) / RFU DUSP10 (11751237_a_at) / Fold change /veh DUSP10 (11751237_a_at) / RFU ID3 (11757404_x_at) / Fold change /veh ID3 (11757404_x_at) / RFU PLEKHG5 (11737974_s_at) / Fold change /veh PLEKHG5 (11737974_s_at) / RFU LRRC4B (11730491_at) / Fold change /veh LRRC4B (11730491_at) / RFU GIMAP4 (11747438_a_at) / Fold change /veh GIMAP4 (11747438_a_at) / RFU KRT8 (11758183_x_at) / Fold change /veh KRT8 (11758183_x_at) / RFU CNN1 (11734310_a_at) / Fold change /veh CNN1 (11734310_a_at) / RFU VPS37D (11726825_at) / Fold change /veh VPS37D (11726825_at) / RFU C10orf10 (11716522_x_at) / Fold change /veh C10orf10 (11716522_x_at) / RFU KIR2DL2 /// KIR2DL4 /// KIR2DL5A /// KIR2DL5B /// KIR2DS1 /// KIR2DS2 /// KIR2DS3 /// KIR2DS4 /// KIR3DL3 /// KIR3DL3 /// KIR3DS1 (11738374_at) / Fold change /veh KIR2DL2 /// KIR2DL4 /// KIR2DL5A /// KIR2DL5B /// KIR2DS1 /// KIR2DS2 /// KIR2DS3 /// KIR2DS4 /// KIR3DL3 /// KIR3DL3 /// KIR3DS1 (11738374_at) / RFU C1QL1 (11718748_at) / Fold change /veh C1QL1 (11718748_at) / RFU TMPRSS4 (11747572_a_at) / Fold change /veh TMPRSS4 (11747572_a_at) / RFU HAMP (11756126_x_at) / Fold change /veh HAMP (11756126_x_at) / RFU RNFT2 (11725882_a_at) / Fold change /veh RNFT2 (11725882_a_at) / RFU NR4A2 (11747474_a_at) / Fold change /veh NR4A2 (11747474_a_at) / RFU ABCC12 (11746883_a_at) / Fold change /veh ABCC12 (11746883_a_at) / RFU TMEM136 (11760407_x_at) / Fold change /veh TMEM136 (11760407_x_at) / RFU CLDN22 /// WWC2 (11732394_at) / Fold change /veh CLDN22 /// WWC2 (11732394_at) / RFU HLA-DPB1 (11760878_x_at) / Fold change /veh HLA-DPB1 (11760878_x_at) / RFU SPINT1 (11716480_a_at) / Fold change /veh SPINT1 (11716480_a_at) / RFU GAP43 (11754022_s_at) / Fold change /veh GAP43 (11754022_s_at) / RFU A4GNT (11735810_at) / Fold change /veh A4GNT (11735810_at) / RFU PRB3 (11715151_x_at) / Fold change /veh PRB3 (11715151_x_at) / RFU TUBB4B (11761932_at) / Fold change /veh TUBB4B (11761932_at) / RFU CAPN14 (11732068_a_at) / Fold change /veh CAPN14 (11732068_a_at) / RFU TMCC2 (11721928_a_at) / Fold change /veh TMCC2 (11721928_a_at) / RFU IRGQ (11745062_a_at) / Fold change /veh IRGQ (11745062_a_at) / RFU FAM174B (11720279_a_at) / Fold change /veh FAM174B (11720279_a_at) / RFU TMPRSS4 (11748680_a_at) / Fold change /veh TMPRSS4 (11748680_a_at) / RFU FAM212B (11763350_a_at) / Fold change /veh FAM212B (11763350_a_at) / RFU PLEKHG5 (11743358_a_at) / Fold change /veh PLEKHG5 (11743358_a_at) / RFU ZSCAN30 (11745921_a_at) / Fold change /veh ZSCAN30 (11745921_a_at) / RFU CMKLR1 (11741424_a_at) / Fold change /veh CMKLR1 (11741424_a_at) / RFU LOC101060620 /// MAPK8IP1 (11723275_at) / Fold change /veh LOC101060620 /// MAPK8IP1 (11723275_at) / RFU SPTSSB (11747773_x_at) / Fold change /veh SPTSSB (11747773_x_at) / RFU PRSS12 (11739890_at) / Fold change /veh PRSS12 (11739890_at) / RFU BIN1 (11741810_x_at) / Fold change /veh BIN1 (11741810_x_at) / RFU WNT11 (11732464_a_at) / Fold change /veh WNT11 (11732464_a_at) / RFU C10orf10 (11716521_a_at) / Fold change /veh C10orf10 (11716521_a_at) / RFU C5orf56 (11738089_at) / Fold change /veh C5orf56 (11738089_at) / RFU CYB561 (11721691_x_at) / Fold change /veh CYB561 (11721691_x_at) / RFU ANKRD19P (11752326_a_at) / Fold change /veh ANKRD19P (11752326_a_at) / RFU OR2T12 /// OR2T33 /// OR2T8 (11738714_s_at) / Fold change /veh OR2T12 /// OR2T33 /// OR2T8 (11738714_s_at) / RFU VCAN (11748164_a_at) / Fold change /veh VCAN (11748164_a_at) / RFU JSRP1 (11732532_at) / Fold change /veh JSRP1 (11732532_at) / RFU KRTAP10-11 (11738290_x_at) / Fold change /veh KRTAP10-11 (11738290_x_at) / RFU MYO3A (11730013_a_at) / Fold change /veh MYO3A (11730013_a_at) / RFU EBF3 (11725865_a_at) / Fold change /veh EBF3 (11725865_a_at) / RFU CAMK2N1 (11719241_x_at) / Fold change /veh CAMK2N1 (11719241_x_at) / RFU C5orf56 (11738088_a_at) / Fold change /veh C5orf56 (11738088_a_at) / RFU OLFML3 (11715873_a_at) / Fold change /veh OLFML3 (11715873_a_at) / RFU LOC100653217 /// NTM (11731650_a_at) / Fold change /veh LOC100653217 /// NTM (11731650_a_at) / RFU MAPK11 (11762145_a_at) / Fold change /veh MAPK11 (11762145_a_at) / RFU FIZ1 (11724087_x_at) / Fold change /veh FIZ1 (11724087_x_at) / RFU OASL (11726364_x_at) / Fold change /veh OASL (11726364_x_at) / RFU SOX15 (11748057_x_at) / Fold change /veh SOX15 (11748057_x_at) / RFU CD79A (11719716_a_at) / Fold change /veh CD79A (11719716_a_at) / RFU HIST1H1D (11736915_at) / Fold change /veh HIST1H1D (11736915_at) / RFU CASKIN2 (11723855_a_at) / Fold change /veh CASKIN2 (11723855_a_at) / RFU LOC730098 (11760151_x_at) / Fold change /veh LOC730098 (11760151_x_at) / RFU OR4N2 (11742367_at) / Fold change /veh OR4N2 (11742367_at) / RFU PRRT2 (11749266_a_at) / Fold change /veh PRRT2 (11749266_a_at) / RFU SNX32 (11753110_a_at) / Fold change /veh SNX32 (11753110_a_at) / RFU CDHR5 (11726645_a_at) / Fold change /veh CDHR5 (11726645_a_at) / RFU RCAN1 (11760418_a_at) / Fold change /veh RCAN1 (11760418_a_at) / RFU FAM167A (11723789_a_at) / Fold change /veh FAM167A (11723789_a_at) / RFU FAM26E (11764081_at) / Fold change /veh FAM26E (11764081_at) / RFU ISYNA1 (11749810_s_at) / Fold change /veh ISYNA1 (11749810_s_at) / RFU ACY1 (11761880_at) / Fold change /veh ACY1 (11761880_at) / RFU 11764098_at / Fold change /veh 11764098_at / RFU SAMD14 (11745864_x_at) / Fold change /veh SAMD14 (11745864_x_at) / RFU NPB (11741838_a_at) / Fold change /veh NPB (11741838_a_at) / RFU TMPRSS6 (11731388_a_at) / Fold change /veh TMPRSS6 (11731388_a_at) / RFU KRTAP10-2 (11738614_at) / Fold change /veh KRTAP10-2 (11738614_at) / RFU ARHGAP8 /// PRR5-ARHGAP8 (11727945_x_at) / Fold change /veh ARHGAP8 /// PRR5-ARHGAP8 (11727945_x_at) / RFU KRTAP5-7 /// NADSYN1 (11734609_at) / Fold change /veh KRTAP5-7 /// NADSYN1 (11734609_at) / RFU RASL12 (11751679_a_at) / Fold change /veh RASL12 (11751679_a_at) / RFU CDKN2B (11736163_a_at) / Fold change /veh CDKN2B (11736163_a_at) / RFU PRF1 (11729649_at) / Fold change /veh PRF1 (11729649_at) / RFU, ZNF638 /// ZNF638-IT1 / Fold change vs veh, ZNF638 /// ZNF638-IT1 / RFU, PANK3 / Fold change vs veh, PANK3 / RFU, SH3YL1 / Fold change vs veh, SH3YL1 / RFU, ZEB2 / Fold change vs veh, ZEB2 / RFU, NRIP1 / Fold change vs veh, NRIP1 / RFU, PTTG1IP / Fold change vs veh, PTTG1IP / RFU, CAPN2 / Fold change vs veh, CAPN2 / RFU, MED14 / Fold change vs veh, MED14 / RFU, SNORA58 / Fold change vs veh, SNORA58 / RFU, C1orf63 / Fold change vs veh, C1orf63 / RFU, LRRFIP1 / Fold change vs veh, LRRFIP1 / RFU, NDUFAF7 / Fold change vs veh, NDUFAF7 / RFU, SLC12A2 / Fold change vs veh, SLC12A2 / RFU, IBTK / Fold change vs veh, IBTK / RFU, ESF1 / Fold change vs veh, ESF1 / Fold change vs veh, TMEM50B / RFU, TAOK1 / Fold change vs veh, TAOK1 / RFU, ACBD3 / Fold change vs veh, ACBD3 / RFU, TMA16 / Fold change vs veh, TMA16 / RFU, RWDD3 / Fold change vs veh, RWDD3 / RFU, BCAT1 / Fold change vs veh, BCAT1 / RFU, EDEM3 / Fold change vs veh, EDEM3 / RFU, TMEM33 / Fold change vs veh, TMEM33 / RFU, WDR75 / Fold change vs veh, WDR75 / RFU, AHCTF1 / Fold change vs veh, AHCTF1 / RFU, TFRC / Fold change vs veh, TFRC / RFU, ZDHHC17 / Fold change vs veh, ZDHHC17 / RFU, NOM1 / Fold change vs veh, NOM1 / RFU, ARL8B / Fold change vs veh, ARL8B / RFU, ZBTB11 / Fold change vs veh, ZBTB11 / RFU, TAMM41 / Fold change vs veh, TAMM41 / RFU, KIAA1704 /// LOC100996395 / Fold change vs veh, KIAA1704 /// LOC100996395 / RFU, ING1 / Fold change vs veh, ING1 / RFU, TRMT61B / Fold change vs veh, TRMT61B / RFU, FUBP3 / Fold change vs veh, FUBP3 / RFU, TP53 / Fold change vs veh, TP53 / RFU, TNKS2 / Fold change vs veh, TNKS2 / RFU, ZFP14 / Fold change vs veh, ZFP14 / RFU, ACTR2 / Fold change vs veh, ACTR2 / RFU, PPP3R1 / Fold change vs veh, PPP3R1 / RFU, PIK3R1 / Fold change vs veh, PIK3R1 / RFU, HNRNPA1 / Fold change vs veh, HNRNPA1 / RFU, RNF170 / Fold change vs veh, RNF170 / RFU, ZNF28 / Fold change vs veh, ZNF28 / RFU, RNGTT / Fold change vs veh, RNGTT / RFU, OGT / Fold change vs veh, OGT / RFU, BRD1 / Fold change vs veh, BRD1 / RFU, MARS / Fold change vs veh, MARS / RFU, ZNF655 / Fold change vs veh, ZNF655 / RFU, FAHD1 / Fold change vs veh, FAHD1 / RFU, BDP1 / Fold change vs veh, BDP1 / RFU, LRRCC1 / Fold change vs veh, LRRCC1 / RFU, ARID1A / Fold change vs veh, ARID1A / RFU, ZNF146 / Fold change vs veh, ZNF146 / RFU, ZNF330 / Fold change vs veh, ZNF330 / RFU, GPN3 / Fold change vs veh, GPN3 / RFU, C9orf123 / Fold change vs veh, C9orf123 / RFU, N4BP2L2 / Fold change vs veh, N4BP2L2 / RFU, ARFIP1 / Fold change vs veh, ARFIP1 / RFU, FAM179B / Fold change vs veh, FAM179B / RFU, BCL10 / Fold change vs veh, BCL10 / RFU, UHRF1BP1L / Fold change vs veh, UHRF1BP1L / RFU, BET1 / Fold change vs veh, BET1 / RFU, CNOT2 / Fold change vs veh, CNOT2 / RFU, ZNF268 / Fold change vs veh, ZNF268 / Fold change vs veh, ZNF507 / RFU, DGCR2 / Fold change vs veh, DGCR2 / RFU, WDSUB1 / Fold change vs veh, WDSUB1 / Fold change vs veh, HSP90B1 /// MIR3652 / RFU, ADSS / Fold change vs veh, ADSS / RFU, GK / Fold change vs veh, GK / RFU, ZNF148 / Fold change vs veh, ZNF148 / RFU, TAF9 / Fold change vs veh, TAF9 / RFU, SLC1A5 / Fold change vs veh, SLC1A5 / RFU, SLMO2 / Fold change vs veh, SLMO2 / RFU, ABCC4 / Fold change vs veh, ABCC4 / RFU, LOC101060439 /// RAP1B / Fold change vs veh, LOC101060439 /// RAP1B / RFU, RFX7 / Fold change vs veh, RFX7 / RFU, GTPBP10 / Fold change vs veh, GTPBP10 / RFU, CNEP1R1 / Fold change vs veh, CNEP1R1 / RFU, BIVM-ERCC5 /// ERCC5 / Fold change vs veh, BIVM-ERCC5 /// ERCC5 / RFU, ILF3 / Fold change vs veh, ILF3 / RFU 11762660_at / Fold change /veh 11762660_at / RFU VCAN (11757783_s_at) / Fold change /veh VCAN (11757783_s_at) / RFU DDX43 (11728927_at) / Fold change /veh DDX43 (11728927_at) / RFU KRT8 (11758188_x_at) / Fold change /veh KRT8 (11758188_x_at) / RFU NKD1 (11759106_at) / Fold change /veh NKD1 (11759106_at) / RFU SRD5A1 (11742802_a_at) / Fold change /veh SRD5A1 (11742802_a_at) / RFU TPSAB1 /// TPSB2 (11721975_s_at) / Fold change /veh TPSAB1 /// TPSB2 (11721975_s_at) / RFU GSTM3 (11746129_a_at) / Fold change /veh GSTM3 (11746129_a_at) / RFU IL23R (11737362_x_at) / Fold change /veh IL23R (11737362_x_at) / RFU TMEM51 (11727254_a_at) / Fold change /veh TMEM51 (11727254_a_at) / RFU PIWIL2 (11732686_x_at) / Fold change /veh PIWIL2 (11732686_x_at) / RFU ORM1 (11744905_x_at) / Fold change /veh ORM1 (11744905_x_at) / RFU CCDC152 (11743942_at) / Fold change /veh CCDC152 (11743942_at) / RFU ECM1 (11717891_a_at) / Fold change /veh ECM1 (11717891_a_at) / RFU IL23R (11748794_a_at) / Fold change /veh IL23R (11748794_a_at) / RFU TNFAIP8L3 (11732012_x_at) / Fold change /veh TNFAIP8L3 (11732012_x_at) / RFU MBOAT4 (11741988_at) / Fold change /veh MBOAT4 (11741988_at) / RFU 11764193_at / Fold change /veh 11764193_at / RFU TMEM53 (11763286_at) / Fold change /veh TMEM53 (11763286_at) / RFU MAGEB2 (11727129_at) / Fold change /veh MAGEB2 (11727129_at) / RFU TMEM200A (11744735_a_at) / Fold change /veh TMEM200A (11744735_a_at) / RFU CCDC152 (11751479_a_at) / Fold change /veh CCDC152 (11751479_a_at) / RFU FAM211A (11726209_a_at) / Fold change /veh FAM211A (11726209_a_at) / RFU RGS16 (11746705_a_at) / Fold change /veh RGS16 (11746705_a_at) / RFU VCAN (11755009_s_at) / Fold change /veh VCAN (11755009_s_at) / RFU RHOB (11743442_s_at) / Fold change /veh RHOB (11743442_s_at) / RFU RGS16 (11720943_a_at) / Fold change /veh RGS16 (11720943_a_at) / RFU RGS16 (11720944_at) / Fold change /veh RGS16 (11720944_at) / RFU, VPS4B / Fold change vs veh, VPS4B / RFU, CREB1 / Fold change vs veh, CREB1 / RFU, DNAJC13 / Fold change vs veh, DNAJC13 / RFU, GNAQ / Fold change vs veh, GNAQ / RFU, CDK5R1 / Fold change vs veh, CDK5R1 / RFU, ZRANB3 / Fold change vs veh, ZRANB3 / RFU, CUL4A / Fold change vs veh, CUL4A / RFU, CCNY / Fold change vs veh, CCNY / RFU, UFL1 / Fold change vs veh, UFL1 / RFU, COG3 / Fold change vs veh, COG3 / RFU, DIAPH2 / Fold change vs veh, DIAPH2 / RFU, SKA2 / Fold change vs veh, SKA2 / RFU, AFF3 / Fold change vs veh, AFF3 / RFU, LMF1 / Fold change vs veh, LMF1 / RFU, IPO11 / Fold change vs veh, IPO11 / RFU, DFFB / Fold change vs veh, DFFB / RFU, FOXP1 / Fold change vs veh, FOXP1 / RFU, CARD8 / Fold change vs veh, CARD8 / RFU, STRN3 / Fold change vs veh, STRN3 / RFU, ADK / Fold change vs veh, ADK / RFU, RASSF2 / Fold change vs veh, RASSF2 / RFU, WIPF1 / Fold change vs veh, WIPF1 / RFU, LARP1B / Fold change vs veh, LARP1B / RFU, RASA1 / Fold change vs veh, RASA1 / RFU, RB1 / Fold change vs veh, RB1 / RFU, PPFIA1 / Fold change vs veh, PPFIA1 / RFU, MAT2A / Fold change vs veh, MAT2A / RFU, CCT5 / Fold change vs veh, CCT5 / RFU, WDR92 / Fold change vs veh, WDR92 / RFU, CUX1 / Fold change vs veh, CUX1 / RFU, TTC7A / Fold change vs veh, TTC7A / RFU, TMEM135 / Fold change vs veh, TMEM135 / RFU, DEPTOR / Fold change vs veh, DEPTOR / RFU, CPM / Fold change vs veh, CPM / RFU, DNAJB6 / Fold change vs veh, DNAJB6 / RFU, CACNA2D3 / Fold change vs veh, CACNA2D3 / RFU, DTX4 / Fold change vs veh, DTX4 / RFU, TFCP2 / Fold change vs veh, TFCP2 / RFU, GMCL1 /// GMCL1P1 / Fold change vs veh, GMCL1 /// GMCL1P1 / RFU, AEBP2 / Fold change vs veh, AEBP2 / RFU, SNHG1 /// SNORD22 /// SNORD25 /// SNORD26 /// SNORD27 /// SNORD28 /// SNORD29 /// SNORD31 / Fold change vs veh, SNHG1 /// SNORD22 /// SNORD25 /// SNORD26 /// SNORD27 /// SNORD28 /// SNORD29 /// SNORD31 / Fold change (Aza/veh), C12orf56 (ProbeSet 11735607_a_at) / Fold change (ACY-1035/veh), C12orf56 (ProbeSet 11735607_a_at) / Fold change (Aza/veh), FGFR1OP (ProbeSet 11751329_s_at) / Fold change (ACY-1035/veh), FGFR1OP (ProbeSet 11751329_s_at) / Fold change (Aza/veh), VPS36 (ProbeSet 11739960_a_at) / Fold change (ACY-1035/veh), VPS36 (ProbeSet 11739960_a_at) / RFU SYPL1 (11715823_x_at) / Fold change /veh SYPL1 (11715823_x_at) / RFU IGFBP7 (11715501_s_at) / Fold change /veh IGFBP7 (11715501_s_at) / RFU REEP3 (11722064_at) / Fold change /veh REEP3 (11722064_at) / RFU IGLL1 (11728026_x_at) / Fold change /veh IGLL1 (11728026_x_at): dose or concentration left out as unconfirmed
Conditions: ProbeSet 11740011_at; LIST B

SMILES: Nc1ccc(-c2cccs2)cc1NC(=O)c1ccc2c(c1)cc(C1CC1)n2CCN1CCOCC1 [ACY-1035]
- RFU, ZFP14: 75.53 RFU
